Laboratory results: US20060276478A1, “Pyrazolopyrimidines” (priority 2003, published 2006)
Where a name gives a salt, the structure may show the parent alone.

assay: logP determination by HPLC (EEC directive 79/831 Annex V. A8); type: physicochemical; conditions: HPLC (gradient, acetonitrile/0.1% aqueous phosphoric acid), gradient method
Description: logP values are determined in accordance with EEC directive 79/831 Annex V. A8 by HPLC (gradient method, acetonitrile/0.1% aqueous phosphoric acid). Preparation of Starting Materials

| chromatographic logP | Compound |
| --- | --- |
| 3.31 | N#Cc1cnn2c(Cl)c(-c3c(F)cccc3Cl)c(Cl)nc12 [Example 41] |
| 3.49 | N#Cc1cnn2c(Cl)c(-c3ccc(F)cc3Cl)c(Cl)nc12 [Example 40, 3-cyano-5,7-dichloro-6-(2-chloro-4-fluorophenyl)pyrazolo[1,5-a]pyrimidine] |
| 0.19 | N#Cc1cnn2c(O)c(-c3c(F)cccc3Cl)c(O)nc12 [Example 39] |
| 4.59 | CC(Nc1c(-c2c(F)cccc2Cl)c(Cl)nc2c(C#N)cnn12)C(C)(C)C (stereo not shown) [Example 36, 3-cyano-5-chloro-6-(2-chloro-6-fluorophenyl)-7-(3,3-dimethylbut-2-ylamino)pyrazolo[1,5-a]pyrimidine] |

More lines, now with the values behind:

| Compound | chromatographic logP |
| --- | --- |
| CC(Nc1c(-c2ccc(F)cc2Cl)c(Cl)nc2c(C(=N)N)cnn12)C(C)(C)C (single isomer, unassigned) [Example 3, 3-iminoamide-5-chloro-6-(2-chloro-4-fluorophenyl)-7-(3,3-dimethylbut-2-ylamino)pyrazolo[1,5-a]pyrimidine hydrochloride] | 2.72 |
| CC(Nc1c(-c2ccc(F)cc2Cl)c(Cl)nc2c(C(N)=NO)cnn12)C(C)(C)C (stereo not shown) [Example 2, 3-hydroximinoamido-5-chloro-6-(2-chloro-4-fluorophenyl)-7-(3,3-dimethylbut-2-ylamino)pyrazolo[1,5-a]pyrimidine] | 2.55 |
| CC(Nc1c(-c2ccc(F)cc2Cl)c(Cl)nc2c(C#N)cnn12)C(C)(C)C (stereo not shown) [Example 37] | 4.78 |
| CC(Nc1c(-c2c(F)cccc2Cl)c(Cl)nc2c(C(N)=O)cnn12)C(C)(C)C (stereo not shown) [Example 1, 3-amido-5-chloro-6-(2-chloro-6-fluorophenyl)-7-(3,3-dimethylbut-2-ylamino)pyrazolo[1,5-a]pyrimidine] | 3.62 |

same assay, conditions: gradient method, acetonitrile/0.1% aqueous phosphoric acid

| Compound | chromatographic logP |
| --- | --- |
| CC(Nc1c(-c2ccc(F)cc2Cl)c(Cl)nc2c(C=NNc3ccc([N+](=O)[O-])cc3[N+](=O)[O-])cnn12)C(C)(C)C (stereo not shown) [Example 5, 3-(2,4-dinitriophenylhydraziminomethyl)-5-chloro-6-(2-chloro-4-fluorophenyl)-7-(3,3-dimethylbut-2-ylamino)pyrazolo[1,5-a]pyrimidine] | 6.28 |

same assay, conditions: gradient method, acetonitrile/0.1% aqueous phosphoric acid, hydrochloride

| logP | Compound |
| --- | --- |
| 2.58 | CC(Nc1c(-c2ccc(F)cc2Cl)c(Cl)nc2c(C(=N)N)cnn12)C(C)(C)C (single isomer, unassigned) [Example 4, hydrochloride] |
